Data published in US20110003774A1, “COMPOUNDS HAVING ANTI-PROLIFERATIVE PROPERTIES” (VITAL HEALTH SCIENCES PTY. LTD., priority 2003, published 2011).

Columns and labels:
CD36 scavenger receptor = experiment: Surface expression of CD36 scavenger receptor, FACS with antiCD36-FITC; assay type: cell-based, human; settings: THP-1 monocytes, control cells treated with tocopherol
Protocol: (§1) Cell Culture: Tocopherol and the TP/T2P mixture were each dissolved in ethanol, and the concentrations of the stock solutions were confirmed spectrophotometrically. Monocytes (THP-1) were grown in RPMI/10% FCS.
FIG. 6 represents the change in cell numbers over time as indicated by the number of cells which have taken up the fluorescent antibody.

THP-1 monocytes [1] = experiment: Uptake of oxLDL-DiO by FACS; assay type: cell-based, human
Protocol: Labeling oxLDL. OxLDLs (90% to 100% oxidation) were purchased from Intracell Corp. Small amounts of LDL were oxidized with CuSO4 ([…]) at 37° C. for 18 to 22 hours. LDL oxidation was confirmed by the formation of a characteristic smear band on an agarose gel. Labeling of oxLDL was done basically as previously described. OxLDLs were incubated at 37° C. with DiO (Molecular Probes) in lipoprotein-deficient serum (Sigma) for 15 hours. The labeled oxLDLs (oxLDL-DiO) were purified by ultracentrifugation over a KBr gradient and dialyzed against several changes of saline-EDTA ([…] NaCl-0.01% EDTA) for 6 hours.
Uptake of oxLDL: Uptake of oxLDL was studied with fluorescence-activated cell sorting (FACS). For FACS, the cells were pretreated for 16 hours with 50 μM tocopherol, tocopheryl phosphates, or ethanol solvent (control) and then incubated with oxLDL-DiO (5 μg/mL medium) for 6 hours. For competition experiments, the cells were incubated with monoclonal anti-CD36 antibody (60 μg/5 mL DMEM) (Ancell), with an unspecific isotype-matched antibody (mouse IgM, Ancell), or with unlabeled oxLDL (100 μg/5 mL DMEM) (Intracell Corp). Thereafter, the cells were washed 3 times with PBS and twice with PBS-3 mg/mL BSA and then were detached with trypsin (0.25% trypsin, 0.03% EDTA). […] Data were calculated by subtracting the cell autofluorescence from the fluorescence of the treated samples.

THP-1 monocytes [2] = experiment: Growth inhibition of THP-1 monocytes; assay type: cell-based, human
Protocol: as §1
Growth inhibition by TP/T2P mixture of THP-1 Monocytes: Monocyte proliferation is an important event in the onset and progression of atherosclerosis.

[3] = test system: Rat Aortic Smooth Muscle Cells (RASMC); experiment: Smooth muscle cell proliferation - cell counts (Example 1); assay type: cell-based; settings: for Inhibition of cellular proliferation (in words): cell counts after 72 h, tested 0.25-100 μM
Source text: The Rat Aortic Smooth Muscle Cells (RASMC) used in proliferative studies are derived from the tunica intima and tunica media of healthy, fibrous plaque-free adult rat aorta. This cell line is an accepted model for the study of atherosclerosis, since increased arterial smooth muscle mass are found in the intima lesion of atherosclerosis. RASMC are cryopreserved at second passage and can be propagated at least 16 population doublings. RASMC respond to various factors by cell proliferation and hypertrophy, which are prominent indicators of atherosclerosis in vascular disease. RASMC are well suited for the study of large vessel smooth muscle cell growth and differentiation and serve as an in vitro model in correlation with live rat models.
Rat Aortic Smooth Muscle Cells (RASMC) were seeded in growth medium (basal medium+10% FBS) into 6 well plates (50,000 cells/well). After 24 h, cells were washed twice with Hanks Buffered Salt Solution and serum depleted media (basal medium+0.2% FBS) was added to each well. Cells were serum starved for 48 h. Treatments were then prepared in growth medium and added to each well (3 ml/well). Each treatment was conducted in triplicate. The effect of tocopherol and tocopherol phosphate on smooth muscle cell proliferation was tested at eight concentrations: 0.25, 0.5, 1, 5, 10, 20, 50 and 100 μM. Control treatments included: growth medium and growth medium+vehicle (EtOH, 1/1000). After a 72 h incubation period at 37° C., 5% CO2, cells were counted.
Cell proliferation was assessed and quantified by cell counting. Cells were counted after 48 h starvation in basal medium supplemented with 0.2% serum before the addition of test compounds. The average cell count of triplicate wells was ˜60,000. This number exceeds the number of cells seeded prior to starvation (50,000). Therefore the cells were determined to be viable and treatments were added to each well as described previously.

[4] = test system: Rat Aortic Smooth Muscle Cells (RASMC); experiment: MTS proliferation assay (Example 2, Study 2); assay type: cell-based; settings: 100 μM, vs vehicle control
Protocol: The MTS proliferation assay was conducted to further support and compliment the adhered cell counts assay. The MTS assay is a well established method for the assessment of cellular proliferation which takes into account the viable cells that are adhered to the plate (as in adhered cell counts) and those that may become detached and float in the media during the course of the experiment (which would be missed in adhered cell counts).

[5] = test system: Rat Aortic Smooth Muscle Cells (RASMC); experiment: Counting adhered cells (Example 2, Study 1); assay type: cell-based; settings: adhered cell counts, 0-100 μM, vs vehicle control
Protocol: This example assesses the anti-proliferative activity of α-tocopheryl phosphate (TP), di-tocopheryl phosphate (T2P), the TP/T2P mixture and α-tocopherol using two types of cell counting assays: adhered cell counts and MTS assay.
In this study cells remaining on the bottom of the plate were counted and anti-proliferative activity was assessed based on the number of viable cells that remained adhered to the plate.

Molecule | CD36 expression (in words) (CD36 scavenger receptor) | Concentration giving the same inhibition of oxLDL uptake (as 50 μM tocopherol, 33% reduction) (THP-1 monocytes [1]) | Reduction of OxLDL-DiO uptake signal (median of the peak) (THP-1 monocytes [1]; 50 μM, 16 h pretreatment, 6 h oxLDL-DiO) | Inhibition of monocyte proliferation (in words) (THP-1 monocytes [2]; THP-1, TP/T2P at 30 μM (TP1) and 60 μM (TP2), especially after 48 h, relative to ethanol control) | Inhibition of proliferation of human monocyte cells (THP-1 monocytes [2]; THP-1 monocytes) | Optimum inhibition of proliferation (plateau) ([3]; 72 h, higher doses) | Inhibition of cellular proliferation (in words) ([3]; listed as Tocopherol) | Inhibition of cellular proliferation (in words) ([3]; listed as α-tocopherol) | Inhibition of smooth muscle cell proliferation [4] | Maximum inhibition of smooth muscle cell proliferation [5]
Cc1c(C)c2c(c(C)c1O)CC[C@@](C)(CCC[C@H](C)CCC[C@H](C)CCCC(C)C)O2 [tocopherol, α-tocopherol] | expressed large amounts of CD36 receptors | 50 µM | 33% | not able to inhibit | no inhibition | around 60% | inhibited only to some degree | partially inhibited | – | –
α-tocopheryl phosphate [TP] | – | – | – | – | – | – | – | – | up to 85% | did not inhibit
